According to US9365584B2, “Thieno [2,3-B] pyridinedione activators of AMPK and therapeutic uses thereof” (Poxel, priority 2009, dated 2016):

Tested on: AMPK
Test: AMPK enzyme activity assay (Delfia technology, AMARA peptide substrate)
Assay type: biochemical
Settings: compound at 30 μM vs AMP at 200 μM
Procedure: The following biological test allows the determination of the efficacy of compounds of formula (1) onto AMPK protein.
AMPK enzyme activities were assayed by using a Delfia technology. AMPK enzyme activities were carried out in microtiter plates in the presence of a synthetic peptide substrate (AMARAASAAALARRR, the “AMARA” peptide) and activators in serial dilutions. Reactions were initiated by the addition of AMPK. Enzyme activity was assayed by using an anti-phosphoserine antibody to measure the quantity of phosphate incorporated into the AMARAA.
No: Number of the molecule
Activity: Ratio between the % of control (basal activity) of compound of formula (1) at 30 μM and the % of control (basal activity) of AMP (natural substrate) at 200 μM.

| Activity: Ratio between the % of control (basal activity) of compound of formula (1) at 30 μM and the % of control (basal activity) of AMP (natural substrate) at 200 μM | Compound |
| --- | --- |
| A (0%<A<50%) | O=C1Nc2scc(-c3ccccc3)c2C(=O)C1(c1ccccc1)c1ccccc1 [No 9, 3,5,5-triphenyl-7H-thieno[2,3-b]pyridine-4,6-dione] |
| A (0%<A<50%) | COc1c(-c2c(Cl)sc3c2C(=O)C(C)(c2ccccc2)C(=O)N3)ccc(F)c1F (stereo not drawn) [No 13, 2-chloro-3-(3,4-difluoro-2-methoxy-phenyl)-5-methyl-5-phenyl-7H-thieno[2,3-b]pyridine-4,6-dione] |
| A (0%<A<50%) | CC1(c2ccccc2)C(=O)Nc2scc(-c3ccc(F)c(F)c3O)c2C1=O (stereo not drawn) [No 14, 3-(3,4-difluoro-2-hydroxy-phenyl)-5-methyl-5-phenyl-7H-thieno[2,3-b]pyridine-4,6-dione] |
| A (0%<A<50%) | COc1ccc(C2(C)C(=O)Nc3sc(Cl)c(-c4ccc(F)cc4O)c3C2=O)cc1 (stereo not drawn) [No 15, 2-chloro-3-(4-fluoro-2-hydroxy-phenyl)-5-(4-methoxy-phenyl)-5-methyl-7H-thieno[2,3-b]pyridine-4,6-dione] |
| A (0%<A<50%) | CC1(C)C(=O)Nc2scc(-c3ccccc3)c2C1=O [No 18, 5,5-dimethyl-3-phenyl-7H-thieno[2,3-b]pyridine-4,6-dione] |
| C (C≧75%) | O=C1Nc2sc(Cl)c(-c3ccccc3)c2C(=O)C1(F)c1ccccc1 (stereo not drawn) [No 20, 2-chloro-5-fluoro-3,5-diphenyl-7H-thieno[2,3-b]pyridine-4,6-dione] |
| A (0%<A<50%) | CCOc1ccc(C2(C)C(=O)Nc3scc(-c4ccc(C)c(F)c4O)c3C2=O)cc1 (stereo not drawn) [No 23, 5-(4-ethoxyphenyl)-3-(3-fluoro-2-hydroxy-4-methyl-phenyl)-5-methyl-7H-thieno[2,3-b]pyridine-4,6-dione] |

The next lines start with the compound.

| Compound | Activity: Ratio between the % of control (basal activity) of compound of formula (1) at 30 μM and the % of control (basal activity) of AMP (natural substrate) at 200 μM |
| --- | --- |
| 2,5-difluoro-3-(2-naphthyl)-5-phenyl-7H-thieno[2,3-b]pyridine-4,6-dione [No 162] | C (C≧75%) |
| 2-chloro-5-(3-methoxyphenyl)-5-methyl-3-(p-tolyl)-7H-thieno[2,3-b]pyridine-4,6-dione [No 209] | A (0%<A<50%) |
| 2-chloro-5-fluoro-3-(5-fluoro-2-hydroxy-phenyl)-5-phenyl-7H-thieno[2,3-b]pyridine-4,6-dione [No 221] | C (C≧75%) |
| 2-chloro-5-methyl-3,5-bis(p-tolyl)-7H-thieno[2,3-b]pyridine-4,6-dione [No 154] | A (0%<A<50%) |
| 5-fluoro-3-(2-naphthyl)-5-phenyl-7H-thieno[2,3-b]pyridine-4,6-dione [No 161] | C (C≧75%) |
| CC1(c2ccccc2)C(=O)Nc2sc(Cl)c(-c3ccc4ccccc4c3O)c2C1=O (stereo not drawn) [No 7, 2-chloro-3-(1-hydroxy-2-naphthyl)-5-methyl-5-phenyl-7H-thieno[2,3-b]pyridine-4,6-dione] | A (0%<A<50%) |
| CC1(c2ccccc2)C(=O)Nc2scc(-c3ccc4ccccc4c3O)c2C1=O (stereo not drawn) [No 8, 3-(1-hydroxy-2-naphthyl)-5-methyl-5-phenyl-7H-thieno[2,3-b]pyridine-4,6-dione] | A (0%<A<50%) |
| O=C1Nc2scc(-c3ccccc3)c2C(=O)C1(Cc1ccccc1)c1ccccc1 (stereo not drawn) [No 10, 5-benzyl-3,5-diphenyl-7H-thieno[2,3-b]pyridine-4,6-dione] | A (0%<A<50%) |
| CCC1(c2ccccc2)C(=O)Nc2scc(-c3ccccc3)c2C1=O (stereo not drawn) [No 11, 5-ethyl-3,5-diphenyl-7H-thieno[2,3-b]pyridine-4,6-dione] | A (0%<A<50%) |
| CCOc1c(F)ccc(-c2c(Cl)sc3c2C(=O)C(C)(c2ccccc2)C(=O)N3)c1OC (stereo not drawn) [No 12, 2-chloro-3-(3-ethoxy-4-fluoro-2-methoxy-phenyl)-5-methyl-5-phenyl-7H-thieno[2,3-b]pyridine-4,6-dione] | A (0%<A<50%) |
| CCc1ccc(-c2csc3c2C(=O)C(C)(c2ccccc2)C(=O)N3)c(OC)c1 (stereo not drawn) [No 16, 3-(4-ethyl-2-methoxy-phenyl)-5-methyl-5-phenyl-7H-thieno[2,3-b]pyridine-4,6-dione] | A (0%<A<50%) |
| CCOc1ccc(C2(C)C(=O)Nc3scc(-c4ccc(C)cc4F)c3C2=O)cc1 (stereo not drawn) [No 17, 5-(4-ethoxyphenyl)-3-(2-fluoro-4-methyl-phenyl)-5-methyl-7H-thieno[2,3-b]pyridine-4,6-dione] | A (0%<A<50%) |
| CCOc1ccc(C2(C)C(=O)Nc3sc(C)c(-c4ccc(F)c(C)c4O)c3C2=O)cc1 (stereo not drawn) [No 19, 5-(4-ethoxyphenyl)-3-(4-fluoro-2-hydroxy-3-methyl-phenyl)-2,5-dimethyl-7H-thieno[2,3-b]pyridine-4,6-dione] | A (0%<A<50%) |
| CCOc1ccc(C2(C)C(=O)Nc3scc(-c4ccc(Cl)cc4OC)c3C2=O)cc1 (stereo not drawn) [No 21, 3-(4-chloro-2-methoxy-phenyl)-5-(4-ethoxyphenyl)-5-methyl-7H-thieno[2,3-b]pyridine-4,6-dione] | A (0%<A<50%) |
| CCOc1ccc(C2(C)C(=O)Nc3sc(Cl)c(-c4ccc(C)cc4F)c3C2=O)cc1 (stereo not drawn) [No 22, 2-chloro-5-(4-ethoxyphenyl)-3-(2-fluoro-4-methyl-phenyl)-5-methyl-7H-thieno[2,3-b]pyridine-4,6-dione] | B (50%≦B<75%) |
| Cc1ccc(-c2csc3c2C(=O)C(C)(c2ccc(O)cc2)C(=O)N3)c(O)c1F (stereo not drawn) [No 24, 3-(3-fluoro-2-hydroxy-4-methyl-phenyl)-5-(4-hydroxy-phenyl)-5-methyl-7H-thieno[2,3-b]pyridine-4,6-dione] | A (0%<A<50%) |
| O=C1Nc2scc(-c3ccc(F)cc3O)c2C(=O)C1(F)c1ccccc1 (stereo not drawn) [No 25, 5-fluoro-3-(4-fluoro-2-hydroxy-phenyl)-5-phenyl-7H-thieno[2,3-b]pyridine-4,6-dione] | C (C≧75%) |
